In US12350273B2, “Treatment of SMA” (Hoffmann-La Roche Inc., priority 2017, dated 2025):
Like-named read-outs stand apart in the source and are kept apart here.

Assays:
retina = assay: 39-week monkey toxicity study: retina effects (ERG, sdOCT, histopathology), NOAEL; conditions: for ERG B-wave amplitude, left eye / ERG B-wave amplitude, right eye: Animal 0114 (female, 7.5/5 mg/kg/day)
[1] = 39-week monkey toxicity study: toxicokinetics in plasma; assay type: in vivo, cynomolgus monkeys (Macaca fascicularis); conditions: for AUC(0-t) / Cmax: cynomolgus monkey, plasma
Protocol: Blood samples for toxicokinetics (nominally 0.5 mL) were taken from all test article-treated animals on Days 1, 12 (Week 2), 26 (Group 4 only), 57 (Week 9), 92 (Week 14), 180 (Week 26) and 267 (Week 39) of the dosing phase at the following time points: • 0 (predose), 1, 3, 7 and 24 hours postdose
An additional sample was taken at 72 hours postdose on Day 12 (i.e. Day 15) from all Group 4 animals.
Samples were taken from the femoral vein/artery. Each blood sample was mixed gently by hand then placed on crushed wet ice until centrifugation at 2300 g for 10 minutes at approximately 4° C. The resultant plasma was separated, split into two uniquely labelled clear polypropylene tubes and frozen at <−50° C. (nominally −80° C.). One sample was transported frozen on dry ice to the Principal Investigator for analysis, and the other was retained at Covance.

Cc1cn2nc(-c3cc(=O)n4cc(N5CCNC6(CC6)C5)ccc4n3)cc(C)c2n1 [RO7034067, 7-(4,7-diazaspiro[2.5]octan-7-yl)-2-(2,8-dimethylimidazo[1,2-b]pyridazin-6-yl)pyrido[1,2-a]pyrimidin-4-one]
animals noted with ERG deficits (retina; 1.5 mg/kg/day): No animals | retinal appearance by sdOCT (retina; 1.5 mg/kg/day): retained a normal retinal appearance | AUC0-24h exposure free of retina effects (NOEL/NOAEL of the retina finding), females (retina; 1.5 mg/kg/day, 39 weeks, females): 2060 ng·h/mL | AUC0-24h exposure free of retina effects (NOEL/NOAEL of the retina finding), males (retina; 1.5 mg/kg/day, 39 weeks, males): 1870 ng·h/mL | animals with adverse histopathologic degeneration in mid to peripheral retina (retina; 3 mg/kg/day): one female | animals with adverse histopathologic degeneration in mid to peripheral retina (retina; 7.5/5 mg/kg/day): two animals/sex | ERG finding in several animals (retina; 7.5/5 mg/kg/day, Week 20 of the dosing phase): markedly depressed scotopic and photopic ERGs | primary finding of 39-week administration (retina; 7.5/5 mg/kg/day, correlated with nonadverse epidermal hyperplasia): clinical signs in the skin | reversibility of retinal degeneration (histopathology) (retina; 22-week recovery period): not reversible during the recovery period | recovery of MMD and depressed ERG (retina; 22-week recovery phase): almost fully recovered | ERG B-wave amplitude, left eye (retina; recovery Week 22): 52.7 mcV | ERG B-wave amplitude, right eye (retina; recovery Week 22): 43.4 mcV | ERG B-wave amplitude, left eye (retina; recovery week 8): 33.5 mcV | ERG B-wave amplitude, right eye (retina; recovery week 8): 34.1 mcV | lowest AUC0-24h exposure at the mid-dose with retina findings (retina; animal No. 11): 4540 ng·h/mL | lowest AUC0-24h exposure at the mid-dose with retina findings (retina; animal No. 109): 4560 ng·h/mL | lowest AUC0-24h exposure at the mid-dose with retina findings (retina; animal No. 111): 4560 ng·h/mL | animals with rod ERGs below the criteria (retina; females, 1 mg/kg/day, Week 34): Two | animals with depressed rod responses (ERG grading) (retina; females, 3 mg/kg/day, Week 22): all three | animals with depressed rod responses (ERG grading) (retina; females, 3 mg/kg/day, Week 27): none | animals with depressed rod responses (ERG grading) (retina; females, 3 mg/kg/day, Week 35): 1 of 3 | animals with depressed rod responses (ERG grading) (retina; females, 7.5/5 mg/kg/day, Week 20): 4 of 5 | animals with depressed rod responses (ERG grading) (retina; females, 7.5/5 mg/kg/day, Week 26): 2 of 5 | animals with depressed rod responses (ERG grading) (retina; females, 7.5/5 mg/kg/day, Week 34): 4 of 5 | individual AUC0-24h exposure free of effects on the retina (retina; individual animals, end of study): up to 2300 ng·h/mL | ERG finding (retina; intermediate and low dose groups (3.0 and 1.5 mg/kg/day), dosing phase): generally remained within expected limits | animals with rod response below the expected range (retina; males, 1 mg/kg/day): No males | animals with depressed rod responses (ERG grading) (retina; males, 3 mg/kg/day, Week 22): 1 of 3 | animals with depressed rod responses (ERG grading) (retina; males, 3 mg/kg/day, Week 26 or 35): none | sdOCT finding (retina; males, 3 mg/kg/day, Weeks 22, 27 and 35): minimal/mild retinal disorganization in the periphery | animals with depressed rod responses (ERG grading) (retina; males, 7.5/5 mg/kg/day, Week 20): Four of five | animals with depressed rod responses (ERG grading) (retina; males, 7.5/5 mg/kg/day, Week 26): 2 of 5 | animals with depressed rod responses (ERG grading) (retina; males, 7.5/5 mg/kg/day, Week 34): 5 of 5 | gender differences for AUC(0-24h) or Cmax ([1]; any dose level, 39-week dosing phase): no relevant gender differences | dose dependence of AUC(0-24h) ([1]; between 1.5 and 5 mg/kg/day on each evaluation day): roughly dose-proportional increase | AUC(0-t) ([1]; female, Day 12, 7.5 mg/kg/day oral, read-out: AUC(0-24h), female (mean)): 10200 ng·h/mL | Cmax ([1]; female, Day 12, 7.5 mg/kg/day oral, read-out: Cmax, female (mean)): 1070 ng/mL | Cmax ([1]; female, Day 267 (Week 39), 1.5 mg/kg/day oral, read-out: Cmax, female (mean)): 396 ng/mL | AUC(0-t) ([1]; female, Day 267, 1.5 mg/kg/day oral, read-out: AUC(0-24h), female (mean)): 2060 ng·h/mL | AUC(0-t) ([1]; female, Day 267, 3 mg/kg/day oral, read-out: AUC(0-24h), female (mean)): 4850 ng·h/mL | Cmax ([1]; female, Day 267, 3 mg/kg/day oral, read-out: Cmax, female (mean)): 973 ng/mL | AUC(0-t) ([1]; female, Day 267, 5 mg/kg/day oral (Group 4, 7.5/5), read-out: AUC(0-24h), female (mean)): 6470 ng·h/mL | Cmax ([1]; female, Day 267, 5 mg/kg/day oral (Group 4, 7.5/5), read-out: Cmax, female (mean)): 1160 ng/mL | AUC(0-t) ([1]; male, Day 12, 7.5 mg/kg/day oral, read-out: AUC(0-24h), male (mean)): 11200 ng·h/mL | Cmax ([1]; male, Day 12, 7.5 mg/kg/day oral, read-out: Cmax, male (mean)): 1020 ng/mL | Cmax ([1]; male, Day 267 (Week 39), 1.5 mg/kg/day oral, read-out: Cmax, male (mean)): 414 ng/mL | AUC(0-t) ([1]; male, Day 267, 1.5 mg/kg/day oral, read-out: AUC(0-24h), male (mean)): 1870 ng·h/mL | AUC(0-t) ([1]; male, Day 267, 3 mg/kg/day oral, read-out: AUC(0-24h), male (mean)): 4880 ng·h/mL | Cmax ([1]; male, Day 267, 3 mg/kg/day oral, read-out: Cmax, male (mean)): 1000 ng/mL | AUC(0-t) ([1]; male, Day 267, 5 mg/kg/day oral (Group 4, 7.5/5), read-out: AUC(0-24h), male (mean)): 5880 ng·h/mL | Cmax ([1]; male, Day 267, 5 mg/kg/day oral (Group 4, 7.5/5), read-out: Cmax, male (mean)): 701 ng/mL
